Data reported in ChEMBL document CHEMBL1201862, “PubChem BioAssay data set” (2004).
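Cultured in 96-well plates, cells were exposed to test compound for 48 hours across five concentrations. The concentration for 50% growth inhibition is given as GI50.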 The source made the active and inactive calls. Cut-off read from the data, not from the text of the source: active = GI50 up to about 1.1 µM and inactive = higher.

How the values were obtained:
Assay in all cases: NCI-60 cell line screen, 48 h
786-0 = test system: 786-0
A498 = test system: A498
ACHN = test system: ACHN
CAKI-1 = test system: CAKI-1
CCRF-CEM = test system: CCRF-CEM
DU-145 = test system: DU-145
EKVX = test system: EKVX
HCC 2998 = test system: HCC 2998
HCT-116 = test system: HCT-116
HCT-15 = test system: HCT-15
HL-60 = test system: HL-60
HOP-62 = test system: HOP-62
HOP-92 = test system: HOP-92
HT-29 = test system: HT-29
Hs-578T = test system: Hs-578T
IGROV-1 = test system: IGROV-1
K562 = test system: K562
KM12 = test system: KM12
LOX IMVI = test system: LOX IMVI
M14 = test system: M14
MCF7 = test system: MCF7
MDA-MB-231 = test system: MDA-MB-231
MDA-MB-435 = test system: MDA-MB-435
MDA-N = test system: MDA-N
MOLT-4 = test system: MOLT-4
NCI-H226 = test system: NCI-H226
NCI-H23 = test system: NCI-H23
NCI-H460 = test system: NCI-H460
NCI-H522 = test system: NCI-H522
NCI/ADR-RES = test system: NCI/ADR-RES
OVCAR-3 = test system: OVCAR-3
OVCAR-4 = test system: OVCAR-4
OVCAR-5 = test system: OVCAR-5
OVCAR-8 = test system: OVCAR-8
PC-3 = test system: PC-3
RPMI-8226 = test system: RPMI-8226
RXF 393 = test system: RXF 393
SF-268 = test system: SF-268
SF-295 = test system: SF-295
SF-539 = test system: SF-539
SK-MEL-28 = test system: SK-MEL-28
SK-MEL-2 = test system: SK-MEL-2
SK-MEL-5 = test system: SK-MEL-5
SK-OV-3 = test system: SK-OV-3
SW-620 = test system: SW-620
T47D = test system: T47D
TK-10 = test system: TK-10
U-251 = test system: U-251
UACC-257 = test system: UACC-257
UO-31 = test system: UO-31

Cc1cc(OCc2nn(CN3CCN(C)CC3)c(=S)n2/N=C/c2ccc(-c3ccc(Cl)cc3Cl)o2)ccc1Cl
GI50 (786-0): 90.2 µM (inactive) | GI50 (A498): 36.3 µM (inactive) | GI50 (ACHN): > 100 µM (inactive) | GI50 (CAKI-1): 47.9 µM (inactive) | GI50 (CCRF-CEM): 35.3 µM (inactive) | GI50 (DU-145): > 100 µM (inactive) | GI50 (EKVX): > 100 µM (inactive) | GI50 (HCC 2998): 16.1 µM (inactive) | GI50 (HCT-116): > 100 µM (inactive) | GI50 (HCT-15): 28.5 µM | GI50 (HL-60): 22.3 µM (inactive) | GI50 (HOP-62): 39.3 µM (inactive) | GI50 (HOP-92): 21 µM (inactive) | GI50 (HT-29): 28.2 µM (inactive) | GI50 (Hs-578T): 39.6 µM (inactive) | GI50 (IGROV-1): > 100 µM (inactive) | GI50 (K562): 34.6 µM (inactive) | GI50 (KM12): 20.3 µM (inactive) | GI50 (LOX IMVI): 80.7 µM (inactive) | GI50 (M14): 33.7 µM (inactive) | GI50 (MCF7): 39.4 µM (inactive) | GI50 (MDA-MB-231): 97.5 µM (inactive) | GI50 (MDA-MB-435): 29.5 µM (inactive) | GI50 (MDA-N): 39.3 µM (inactive) | GI50 (MOLT-4): 67.8 µM (inactive) | GI50 (NCI-H226): 40.4 µM (inactive) | GI50 (NCI-H23): 39.6 µM (inactive) | GI50 (NCI-H460): 67.8 µM (inactive) | GI50 (NCI-H522): 24.5 µM (inactive) | GI50 (NCI/ADR-RES): 38 µM (inactive) | GI50 (OVCAR-3): 80 µM (inactive) | GI50 (OVCAR-4): 27 µM (inactive) | GI50 (OVCAR-5): > 100 µM (inactive) | GI50 (OVCAR-8): 44 µM (inactive) | GI50 (PC-3): 85.3 µM (inactive) | GI50 (RPMI-8226): 17.1 µM (inactive) | GI50 (RXF 393): 17.2 µM (inactive) | GI50 (SF-268): 33.1 µM (inactive) | GI50 (SF-295): 84.1 µM (inactive) | GI50 (SF-539): > 100 µM (inactive) | GI50 (SK-MEL-28): 33.1 µM (inactive) | GI50 (SK-MEL-2): > 100 µM (inactive) | GI50 (SK-MEL-5): 44.5 µM (inactive) | GI50 (SK-OV-3): > 100 µM (inactive) | GI50 (SW-620): 15.7 µM (inactive) | GI50 (T47D): 38 µM (inactive) | GI50 (TK-10): 75.2 µM (inactive) | GI50 (U-251): > 100 µM (inactive) | GI50 (UACC-257): 53.5 µM (inactive) | GI50 (UO-31): 57.1 µM (inactive)
